Source: article PMC11489226 (Archives of Toxicology, 2024)
“And” between values parts separate entries of the source, which are not always exact repeats. Identical values can stand only once.

What was measured:
CYP1A2 = molecular target: T1, CYP1A2 (Homo sapiens, UniProt P05177); assay: Metabolism in transgenic HEK293 cells expressing CYP1A2 (LC-MS/MS of supernatant); details: for Quantification of metabolites generated from PCB28, 52, and 101: 20 µM parent PCB, 24 h, supernatant; for Metabolite concentration formed, range across cell clones: HEK293CYP1A2 cell clones, 20 µM PCB28, 24 h
T1 sequence (P05177 1-516): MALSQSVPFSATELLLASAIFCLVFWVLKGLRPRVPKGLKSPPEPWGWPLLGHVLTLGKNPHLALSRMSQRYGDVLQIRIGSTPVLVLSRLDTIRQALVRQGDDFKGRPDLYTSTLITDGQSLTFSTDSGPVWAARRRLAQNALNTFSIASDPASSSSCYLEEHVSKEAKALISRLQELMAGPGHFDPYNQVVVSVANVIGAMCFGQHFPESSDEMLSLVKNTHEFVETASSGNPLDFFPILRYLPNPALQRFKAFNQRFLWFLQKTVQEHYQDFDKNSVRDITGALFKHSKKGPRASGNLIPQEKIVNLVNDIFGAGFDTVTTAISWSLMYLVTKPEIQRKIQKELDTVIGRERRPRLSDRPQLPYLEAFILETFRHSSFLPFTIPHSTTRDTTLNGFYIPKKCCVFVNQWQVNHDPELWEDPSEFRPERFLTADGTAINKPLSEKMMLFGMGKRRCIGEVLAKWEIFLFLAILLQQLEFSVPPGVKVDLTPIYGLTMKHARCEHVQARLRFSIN
Method: (§1) For the generation of transgenic cell lines, we used semi-adherent HEK293 cells (DSMZ, ACC305, human embryonic kidney cells) which were cultured on a daily basis in DMEM medium supplemented with 10% (FCS) and 1% penicillin/streptomycin. In a first step CYP1A2, CYP2C8, CYP2C9, CYP3A4, CYP2A6, and CYP2E1 cDNA were cloned into the plasmid pcDNATM3.1/V5-His TOPO® using human liver RNA as a template and using the following primers: CYP1A2 for5′-[…]-3′, CYP1A2 rev 5′-[…]-3′; CYP2C8 for 5′-[…]-3′, CYP2C8 rev 5′-[…]-3′; CYP2C9 for 5′-[…]-3′, CYP2C9 rev 5′-[…]-3′; CYP3A4 for 5′-[…]-3′, CYP3A4 rev 5′-[…]-3′, CYP2A6 for 5′-[…]-3′, CYP2A6 rev 5′-[…]-3′; CYP2E1 for 5′-[…]-3′, CYP2E1 rev 5′-[…]-3′. Final constructs were verified with Sanger DNA sequencing and restriction digestion. For transfection, 3 × 10^6 HEK293 cells were pre-incubated in a 10 cm dish in DMEM medium with 10% FCS, but without antibiotics, for 18 to 24 h. When the cells reached approximately 70% confluency, they were transfected using TransIT-LT1 transfection reagent (Biozol, Eiching, Germany). The TransIT-LT1 reagent was warmed to room temperature and vortexed. 1.63 mL Opti-MEM, 16.25 µL plasmid DNA (1 µg/µL), and 48.75 µL TransIT-LT1 reagent were mixed and incubated for 15 to 30 min. The mixture was then added dropwise to the medium of the cells, and the cells were incubated again at 37 °C and 5% CO2. After 24 h, the medium was replaced with standard medium and geneticin was added for selection (1 mg/mL). Cells were selected for 6–8 weeks in bulk culture, and single cell clones were obtained subsequently by limiting dilution. Each clone was checked for insertion by PCR using genomic DNA as a template.
(§2) Parallel samples were run without the addition of PCBs. At a confluence of 80%, PCBs (20 μM each, dissolved in ethanol) were added and cells were incubated for 24 h before harvest of supernatants. Supernatants were diluted 1:2 with 80 μL acetate buffer 0.1 M (pH = 5.3). 100 μL of this dilution were further incubated with 100 μL of ammonium acetate buffer 0.1 M (pH = 5.3) and 5 μL of β-Glucuronidase/Arylsulfatase enzyme overnight in a drying oven at 37 °C for enzymatic hydrolysis to release conjugated compounds. 50 μL of a mix of internal standards (10 ng/mL) and 600 μL of methanol were added to the samples, then mixed by vortexing for 1 min and centrifuged for 10 min at 3400g. The individual supernatants were transferred to glass LC vials and evaporated to approximately 50 μL at 45 °C under a gentle stream of nitrogen. Finally, 0.1 mol/ L ammonium acetate buffer was added to a final volume of 100 μL and then transferred to an insert for analysis.
(§3) HEK293 cells overexpressing the respective CYP enzymes were seeded onto 6-well plates and were treated with or without 10 µM of the respective probe drug in DMEM medium for 24 hours at 37 °C and 5 % CO2. After incubation 200 µL DMEM were collected, cells were washed with PBS and adherent cells were lysed in 500 µL methanol for 20 minutes. Analytes were measured by LC-MS/MS either in methanol cell lysates or in DMEM supernatant.
(§4) 50 µL of DMEM samples were protein precipitated by adding 200 µL of methanol and were centrifuged for 20 min, 17,000 g and 4°C. Supernatants were diluted in water or 40 % methanol according to dilution factor. Methanol cell lysates were diluted ½ with water and centrifuged for 20 min, 17,000 g and 4°C. 5 µL of the processed samples were injected for LC-MS analysis.

CYP3A4 = CYP3A4 (Homo sapiens, UniProt P08684); assay: Metabolism in transgenic HEK293 cells expressing CYP3A4; details: 20 µM parent PCB, 24 h, supernatant
Method: as §1, §2, §3, §4

Chain of CYP3A4 (P08684 whole entry): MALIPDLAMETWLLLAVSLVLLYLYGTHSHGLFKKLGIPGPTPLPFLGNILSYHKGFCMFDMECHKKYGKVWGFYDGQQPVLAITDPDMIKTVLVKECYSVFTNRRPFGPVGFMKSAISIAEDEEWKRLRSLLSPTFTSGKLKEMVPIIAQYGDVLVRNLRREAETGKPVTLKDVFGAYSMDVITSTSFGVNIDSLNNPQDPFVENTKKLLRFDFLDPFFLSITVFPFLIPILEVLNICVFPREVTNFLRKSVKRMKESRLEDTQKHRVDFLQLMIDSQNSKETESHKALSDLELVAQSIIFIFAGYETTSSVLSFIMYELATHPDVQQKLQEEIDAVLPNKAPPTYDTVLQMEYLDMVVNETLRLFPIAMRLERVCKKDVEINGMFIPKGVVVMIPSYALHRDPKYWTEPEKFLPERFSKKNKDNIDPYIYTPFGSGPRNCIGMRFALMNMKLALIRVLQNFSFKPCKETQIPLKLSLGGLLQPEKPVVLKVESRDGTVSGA

Compound	Quantification of metabolites generated from PCB28, 52, and 101 (CYP1A2; CYP1A2, clone G5)	Quantification of metabolites generated from PCB28, 52, and 101 (CYP1A2; CYP1A2, clone G8)	Metabolite concentration formed, range across cell clones (CYP1A2)	Quantification of metabolites generated from PCB28, 52, and 101 (CYP3A4; CYP3A4 Clone B4)	Quantification of metabolites generated from PCB28, 52, and 101 (CYP3A4; CYP3A4 Clone D10)	Quantification of metabolites generated from PCB28, 52, and 101 (CYP3A4; CYP3A4 Clone E6)
Oc1cc(Cl)c(-c2ccc(Cl)cc2)cc1Cl [4-OHCB31, 2,4′,5-trichloro-4-biphenylol]	0,69 nM	1,11 nM	0.19–0.30 µg/L and 0.69–1.11 nM	<LOQ	<LOQ	<LOQ
Oc1cc(-c2ccc(Cl)cc2)c(Cl)cc1Cl [5-OHCB28, 2,4,4′-trichloro-5-biphenylol]	6,22 nM	9,07 nM	1.7–2.48 µg/L and 6.22–9.07 nM	<LOQ	<LOQ	<LOQ
